# Measured values taken from patent publication US6169104A, “Di-aryl ethers and their derivatives as anti-cancer agents” (Large Scale Biology Corporation, priority 1998, dated 2001).
# Read-outs that look alike come from different tables or passages of the source.
# Key:
# TNF-α mRNA [1] = details: 10 μM, without LPS
# Experimental: (§4) The murine macrophage PU5-1.8 cell line are purchased from the American Type Culture Collection (ATCC, Rockville, Md.). Cells are grown in DMEM medium supplemented with 100 mM sodium pyruvate, 0.1 mM nonessential amino acids, 2 mM glutamine and 5 % fetal bovine serum (Life Technologies, Staten Island, N.Y.). Cells are maintained in a humidified atmosphere of 5% CO2 -95% air at 37° C. Cells are passaged twice weekly by firmly tapping the side of the flask to dislodge the adherent cells. Both nonadherent and adherent cells are passaged. Exponentially growing cells are seeded at 5×10^5 /mL, 4 mL per 60-mm dish 24 h prior to the experiment. Test compounds are delivered in 1 mL volumes of the medium added to each dish at the start of the experiment. All dishes are incubated at 37° C. in 5% CO2 -95% air for 3 h.
# (§5) The Tumor Necrosis Factor (TNF-α) cDNA is obtained from the ATCC (Rockville, Md.). [α-^32 P]-dCTP (250 μCi) and nylon membranes (Hybond N) are obtained from Amersham (Arlington Heights, Ill.). […] Lipopolysaccharide (LPS) from Escherichia coli is purchased from DIFCO Laboratories (Detroit, Mich.). All plastic supplies are purchased from VWR Scientific products (San Francisco, Calif.). […]
# (§6) Hybridized bands are quantified by analyzing the images obtained by using a video densitometer (Applied Imaging Corporation, Santa Clara, Calif.). […]
# TNF-α mRNA [2] = test: cells; details: Mus musculus, Macrophage, 3 h, read-out: inhibition of TNF-α mRNA accumulation
# Experimental: as §4, §5, §6
# [3] = test system: A549 (non-small cell lung); test: In vitro cytotoxicity screen, alamar Blue assay; format: cell-based; details: Homo sapiens
# Experimental: (§1) Human tumor cell lines were exposed continuously to varying concentrations of test agents, i.e., BTO-956, BTO-964, BTO966 and BTO-967) and the viability of the cells was measured at set time points (1, 3, and 7 days) using the alamar Blue™ assay. […] This fluorescence can be measured with a fluorimeter, whereby the signal is directly proportional to cell number.
# (§2) Various tumor cell lines of human origin representing a wide diversity of cancer pheno- and genotypes were exposed in vitro to the agents to evaluate the drug's effective range. Tumor lines screened included MDA MB 231 (breast), MCF-7 (breast), MDA MB 468 (breast), Siha (squamous cell carcinoma), A549 (non-small cell lung), HL-60 (leukemia), Ovcar-3 (ovarian). The test agents were prepared in serial dilutions from 10 mM stock solutions in DMSO yielding a 66-fold dose range of 20 μM, 10 μM, 3 μM, 1 μM and 0.3 μM concentrations. In each case, cells were maintained at 37° C. under 5 percent CO2 in air. All cell lines were incubated in Dulbecco's modified Eagle medium (DMEM) supplemented with 10% heat-inactivated fetal bovine serum and graded doses of BTO-956, 964, 966, or 967. 5-Fluorouracil (5-FU) was included as a positive control in experiments with two of the cell lines. The experiments were conducted in 96-well tissue culture plates (Falcon) with an initial seeding density of 1000 cells per well in 250 μl aliquots. The next day, medium was replaced with 100 μl of drug dilutions in triplicate.
# (§3) After a 7 day exposure to the various agents, the alamarBlue dye was diluted to 20% in DMEM, and 100 μl was added to each well. The cells were incubated for 8 hours until obvious color changes indicated sufficient amounts of reduced dye for quantitation. Relative cell number was evaluated by florimetry on a Millipore 2300 CytoFluor fluorescence measurement system. Measurements were taken directly from 96-well plates after excitation at 560 nm with concomitant emission at 590 nm.
# MDA MB 231 (breast) = test: In vitro cytotoxicity screen, alamar Blue assay; format: cell-based; details: Homo sapiens
# Experimental: as §1, §2, §3
# [4] = test system: Human leukemia (HL60) cells; test: In vitro metabolism in human leukemia cells with and without rat liver S9; format: cell-based; details: 4 hr incubation with vs without rat liver S9, cells counted 3 days later (FIG. 2)
# Experimental: FIG. 2 illustrates the in vitro metabolism of BTO-956, 964, 966, and 967 in human leukemia cells. In this experiments, human leukemia cells (HL60) were incubated for 4 hours in the presence of BTO-956, BTO-964, BTO-966 or BTO-967, with (closed symbols) and without (open symbols) rat liver microsome fraction S9. Following the 4 hr exposure to drug and S9, the cells were rinsed and replated at a density of 2×10^5 cells per ml, and counted 3 days later.
# To test for either of these possibilities, the compounds, i.e., BTO-956, BTO-964, BTO-966 and BTO-967, were incubated with a microsomal enzyme fraction, referred to as S9.
# Human leukemia (HL60) cells were used to evaluate drug metabolism. Exposure to the test article was performed in the presence and absence of S9, prepared from the liver of adult male rats given a single intraperitoneal injection of Arachlor 1254 (500 mg/kg). The S9 consisted of the 9000×G supernatant of liver homogenized in 0.25 M sucrose-100 mM phosphate buffer (pH 7.4) (Molecular Toxicology, Inc.). Cofactors were 1 mM NADP and 5 mM sodium isocitrate. On the day of exposure, cultures of cells, with or without the metabolism mixture, were incubated for 4 hours in RPMI containing 5% FBS and graded doses of BTO956, 964, 966, or 967. The test agents were prepared in serial dilutions from 10 mM stock solutions in DMSO yielding a dose range 100 μM, 50 μM, 25 μM, 10 μM and 5 μM concentrations and a final DMSO concentration of 1%. In each case, cells were maintained at 37° C. under 5 percent CO2 in air. The experiments were conducted in 6-well tissue culture plates (Falcon) with an initial seeding density of 2×10^6 cells per well in 2 ml aliquots. The test compounds were added immediately to the medium in duplicate cultures. Treatment solution was removed by a series of low-speed centrifugations to pellet the cells, followed by removal of the supernatant and resuspension of cells in fresh RPMI containing 10% FBS.
# Ovcar-3 (ovarian) = test: In vitro cytotoxicity screen, alamar Blue assay; format: cell-based; details: Homo sapiens, 168 h, 7 days post exposure
# Experimental: as §1, §2, §3
# MDA MB 468 (breast) = test: In vitro cytotoxicity screen, alamar Blue assay; format: cell-based; details: Homo sapiens, 168 h, 7 days post exposure
# Experimental: as §1, §2, §3
# MCF-7 (breast) = test: In vitro cytotoxicity screen, alamar Blue assay; format: cell-based; details: Homo sapiens, MCF7, 168 h, 7 days post exposure
# Experimental: as §1, §2, §3
# [5] = test system: Siha (squamous cell carcinoma); test: In vitro cytotoxicity screen, alamar Blue assay; format: cell-based; details: Homo sapiens, 168 h, 7 days post exposure
# Experimental: as §1, §2, §3
# [6] = test system: angiogenesis induced by hFGF-B in the CAM; test: Chick chorioallantoic membrane (CAM) assay, 14C-proline incorporation into collagenous protein; format: in vivo, chick embryo
# Experimental: BTO-964 [methyl 3,5-diiodo-4(4'-methoxyphenoxy) benzaldehyde], and BTO-967 [methyl 3,5-diiodo-4(4'-methoxyphenoxy)-thiobenzoate] were tested in the CAm assay. The endpoint of the CAM assay was a quantiative determination of basement membrane biosynthesis by measuring the incorporation of ^14 C-proline into Type IV collagenous protein.
# The CAM assay involves the development of live chick embryos in Petri dishes under special sterile conditions. Therefore, only limited numbers of embryos can be used for evaluation of compounds in a single experiment. BTO-964 and BTO-967 was tested in separate assays. A known angiogenesis inhibitor, 2-methoxyestradiol (2-ME), was used as the positive control, and human fibroblast growth factor (hFGF) was used to induce angiogenesis in the CAM.
# For testing, a minimum amount of acetone-methanol (1:1) was added to the test compounds for sterilization. The acetone-methanol mixture was then evaporated to dryness in a sterile hood. The compounds were dissolved in dimethyl sulfoxide (DMSO) first and then diluted with saline containing methylcellulose. The final concentrations were 2% DMSO and 0.5% methylcellulose. all test solutions were added to each CAM in […] aliquots.
# Fresh fertile eggs were incubated for three days in a standard egg incubator. On Day 3, eggs were cracked under sterile conditions and embryos were placed in 20×100 mm plastic Petri dishes and cultivated at 37° C. in an embryo incubator with a water reservoir on the bottom shelf. Air was continuously bubbled into the water reservoir by using a small pump so that the humidity in the incubator was kept constant. Observations were made daily to ensure that all embryos were healthy. Dead or unhealthy embryos were removed from the incubator immediately to avoid contamination. On Day 9, a sterile silicone ring cup was placed on each CAM and 0.5 mCi of ^14 C-proline with or without the test compound plus 2.5 ng of hFGF dissolved in saline containing 0.5% methylcellulose was delivered into each ring cup in a sterile hood. 2-ME was tested in parallel to serve as a reference compound. After addition of test materials, the embryos were returned to the incubator and cultivation continued. On Day 12, all embryos were transferred to a cold room at 4-10° C.
# Using the procedure outlined in Maragoudakis, et al., (1989) J. Pharm. Exp. Ther. 251:679-682, the embryos were placed on ice and a piece of CAM 10 mm in diameter was cut off under each ring cup and placed in a separate tube. To each tube was added 1.0 ml of phosphate-buffered saline (PBS, pH 7.3) containing 0.11 mg cycloheximide and 0.17 mg dipyridyl. The tubes were placed in a boiling water bath for 10 min and then cooled to room temperature. The PBS in each tube was discarded after centrifugation at 3000×G for 10 min. The CAM residue was washed once with 3 ml of 15% TCA and then three times with 3 ml of 5% TCA. Centrifugation was carried out as described above between each washing. At this point all non-protein bound radioactivity was removed, and the CAM containing the newly synthesized ^14 C-collagenous protein was suspended in 0.9 ml of 0.1 N NaOH and 1.1 ml of HEPES buffer at pH 7.4. The pH of the sample was neutralized with 0.8 N HCl, using phenol red as indicator.
# To digest the ^14 C-collagenous protein, 7.5 units of collagenase and 500 nmol of calcium chloride in […] of HEPES buffer was added to the above samples, and mixtures were incubated at 37° C. for 4 h. The reaction was stopped by adding 1.0 ml of 20% TCA containing 5 mg of tannic acid into each tube. After vortex mixing, the samples were centrifuged at 3000×G for 10 min. An aliquot of the clear supernatant was taken for scintillation counting to quantitate the radiolabeled tripeptides corresponding to basement membrane collagen and other collagenous materials synthesized by the CAM from ^14 C-proline. The CAM pellets in each tube were solubilized in 0.5 ml of 1.0 N NaOH by boiling in a water bath for 5 min. […]
# [7] = 168 h, A549, 7 days post exposure, read-out: IC50
# [8] = 168 h, MDA MB 231, 7 days post exposure, read-out: IC50
compound,measurement,setting,value
"COc1cc2c(c(OC)c1OC)-c1ccc(OC)c(=O)cc1[C@@H](NC(C)=O)CC2 [colchicine, Colchicine]",effect on TNF-α mRNA expression,TNF-α mRNA [1],no effect
same,inhibition at 10 µM,TNF-α mRNA [2],68%
"O=c1[nH]cc(F)c(=O)[nH]1 [5-FU, 5-Fluorouracil, reference compound]",IC50,"[3]; A549, 168 h",5.5 µM
same,IC50,"MDA MB 231 (breast); MDA-MB-231, 168 h",10 µM
"COC(=O)c1cc(I)c(Oc2ccc(OC)cc2)c(I)c1 [BTO-956, methyl 3,5-diiodo-4-(4'-methoxyphenoxy)benzoate]",effect of metabolism by S9 on activity,[4],metabolized within the 4-hr incubation period to an inactive form
same,IC50,Ovcar-3 (ovarian),< 0.3 µM
same,IC50,MDA MB 468 (breast),0.5 µM
same,IC50,[3]; [7],4 µM
same,IC50,MCF-7 (breast),5 µM
same,IC50,MDA MB 231 (breast); [8],10 µM
same,IC50,[5],0.5 µM
"COCc1cc(I)c(Oc2ccc(OC)cc2)c(I)c1 [BTO-966, 3,5-diiodo-4-(4'-methoxyphenoxy)benzyl methyl ether]",effect of metabolism by S9 on activity,[4],activated to more cytotoxic products
same,IC50,Ovcar-3 (ovarian),6.9 µM
same,IC50,MDA MB 468 (breast),7.5 µM
same,IC50,[3]; [7],> 30 µM
same,IC50,MCF-7 (breast),7 µM
same,IC50,MDA MB 231 (breast); [8],10 µM
same,IC50,[5],> 20 µM
"COc1cc2c(cc1O)CC[C@@H]1[C@@H]2CC[C@]2(C)[C@@H](O)CC[C@@H]12 [2-Methoxyestradiol, 2-methoxyestradiol, reference compound]",% Inhibition,"[6]; 8.3 μg/CAM, BTO-964 experiment",6%
same,14C-Proline Incorporated into Collagenous Protein (cpm/mg protein) (mean ± S.E.),"[6]; 8.3 μg/CAM, BTO-964 experiment, control 11200 ± 829",10499 ± 1372 cpm/mg_protein
same,% Inhibition,"[6]; 8.3 μg/CAM, BTO-967 experiment",9%
same,14C-Proline Incorporated into Collagenous Protein (cpm/mg protein) (mean ± S.E.),"[6]; 8.3 μg/CAM, BTO-967 experiment, control 6300 ± 696",5711 ± 1469 cpm/mg_protein
same,% Inhibition,"[6]; 25 μg/CAM, BTO-964 experiment",35%
same,14C-Proline Incorporated into Collagenous Protein (cpm/mg protein) (mean ± S.E.),"[6]; 25 μg/CAM, BTO-964 experiment, control 11200 ± 829",7303 ± 1424 cpm/mg_protein
same,% Inhibition,"[6]; 25 μg/CAM, BTO-967 experiment",20%
same,14C-Proline Incorporated into Collagenous Protein (cpm/mg protein) (mean ± S.E.),"[6]; 25 μg/CAM, BTO-967 experiment, control 6300 ± 696",5068 ± 1609 cpm/mg_protein
same,% Inhibition,"[6]; 75 μg/CAM, BTO-964 experiment",38%
same,14C-Proline Incorporated into Collagenous Protein (cpm/mg protein) (mean ± S.E.),"[6]; 75 μg/CAM, BTO-964 experiment, control 11200 ± 829",6984 ± 1022 cpm/mg_protein
same,% Inhibition,"[6]; 75 μg/CAM, BTO-967 experiment",38%
same,14C-Proline Incorporated into Collagenous Protein (cpm/mg protein) (mean ± S.E.),"[6]; 75 μg/CAM, BTO-967 experiment, control 6300 ± 696",3875 ± 891 cpm/mg_protein
